In patent EP4810493A1, “HETEROCYCLIC CARBONYL DERIVATIVE MODULATOR, PREPARATION METHOD THEREFOR, AND USE THEREOF” (Shanghai Hansoh Biomedical Co., Ltd., priority 2023, dated 2025):
Where two headings read alike, the source gives them in different places.

Tests used:
[1] = molecular target: T1, M4 receptor (Homo sapiens, UniProt P08173); assay: Calcium flux (FLIPR) potentiation assay in cells stably expressing M4 receptor; format: cell-based
T1 construct: expressed in transfected cells
T1 sequence (P08173 1-479): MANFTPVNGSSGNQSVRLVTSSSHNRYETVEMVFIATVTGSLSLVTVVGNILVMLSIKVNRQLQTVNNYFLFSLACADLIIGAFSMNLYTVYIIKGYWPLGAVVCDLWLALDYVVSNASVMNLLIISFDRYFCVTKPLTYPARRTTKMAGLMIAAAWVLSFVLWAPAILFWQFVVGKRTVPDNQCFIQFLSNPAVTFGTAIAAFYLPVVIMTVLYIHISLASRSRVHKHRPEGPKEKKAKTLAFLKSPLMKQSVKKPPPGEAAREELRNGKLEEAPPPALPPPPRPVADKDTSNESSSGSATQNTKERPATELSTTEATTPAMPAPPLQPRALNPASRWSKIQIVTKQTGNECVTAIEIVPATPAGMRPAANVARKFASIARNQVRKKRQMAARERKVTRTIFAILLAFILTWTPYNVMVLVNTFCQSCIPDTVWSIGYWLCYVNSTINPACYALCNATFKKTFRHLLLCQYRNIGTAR
Text: Test example 1. Determination of the effect of the compounds of the present invention on calcium current in cells stably expressing M1-M5 receptors
To detect the potentiating effect of compounds on calcium flux activity in CHO-K1/human M1/3/5 and CHO-K1/Gα15 M2/4 cells.
384-well assay plate, 384-well plate, FLIPR Tip, FLIPR Penta plate reader, Dispendix non-contact nanoliter dispensing system (liquid handling workstation), liquid handler.
Ham's F-12 Nutrient Mix, foetal bovine serum, P/S (Gibco: 15140122), HBSS (Gibco: 14025076), HEPES (Gibco: 15630080), FLIPR calcium 6 assay kit (Molecular Devices: R8190), Probenecid (PBA) (Invitrogen: P36400), Acetylcholine chloride (Sigma: A6625-25G) Complete culture medium: DMEM + 10% FBS + 1X P/S; Cell seeding medium: DMEM + 10% FBS + 1X PS; Assay buffer 1: 1X HBSS + 20 mM HEPES +2.5 mM Probenecid; Assay buffer 2: 1X HBSS + 20 mM HEPES; Cell line: CHO-K1/M1; CHO-K1/M2/Gα15; CHO-K1/M3; CHO-K1/M4/Gα15; CHO-K1/M5.
FLIPR calcium 6 assay kit: Component A was dissolved in Assay buffer 1, and the mixture was shaken for 1-2 min, sub-packaged and stored at -20°C.
• 1) CHO-K1/M1; CHO-K1/M2/Gα15; CHO-K1/M3; CHO-K1/M4/Gα15; and CHO-K1/M5 cell lines were cultured separately in complete culture medium at 37°C, 5% CO2 to 70%-90% confluency. • 2) The cells were digested and resuspended in cell seeding medium, 5,000 cells/well/20 µL were seeded into a 384-well cell culture plate, and the cells were cultured at 37°C, 5% CO2 for 24 hours. • 3) The cell culture plate was taken out of the CO2 incubator and equilibrated at room temperature for 10 minutes. • 4) Component A solution was removed and allowed to equilibrate to room temperature. 20 µL of Component A solution was added to each well of the cell culture plate, and incubated at room temperature in the dark for 1 hour. • 5) Acetylcholine chloride (ACh), a muscarinic receptor agonist, was prepared in Assay buffer 2 at EC20/EC100 concentrations; subsequently, 30 µL of the prepared muscarinic receptor agonist was added to a 384-well agonist plate (PE: 6008590) using a Multidrop Combi; the working solutions of the positive control compound and the test compound were serially diluted at a 3.16-fold gradient and dispensed (450 nL) into a 384-well compound plate (PE: 6008590) using the Dispendix liquid handling workstation; 30 µL of Assay buffer 2 was added to the 384-well compound plate (PE: 6008590) using the Multidrop Combi; the positive control compound and the test compound were diluted to 6X, mixed by shaking, and placed at room temperature until use. • 6) 10 µL of the diluted 6X compound was added to the assay wells of the corresponding 384-well cell plate using the FLIPR Penta, followed by a 2-minute incubation. • 7) 10 µL of the prepared muscarinic receptor agonist was added to the assay wells of the corresponding 384-well cell plate using the FLIPR Penta, with simultaneous data acquisition.
FLIPR Penta was used to read and collect the fluorescence signal value (RFU). The maximum RFU value was used to calculate the percent activation data based on the readings of the Low control (DMSO control group) and High control (ACh EC100) experimental groups {% activation rate = (RFUsample - RFUlow control) / (RFUhigh control - RFUlow control)×100}. The test compound was diluted 3.16X in the reaction system to generate 11 concentration points ranging from 30 µM to […].

[2] = Pharmacokinetic determination in SD rats; details: rat, in vivo, po, male SD rats, p.o. 5 mg/kg; for MRT inf: read-out: MRT 0-∞
Procedure: To investigate the pharmacokinetic behaviours of the example compounds in both plasma and brain of SD rats (test animals) following oral administration at a dose of 5 mg/kg.
(§1) 2.1 Test drugs: The example compounds of the present invention, made in house.
2.2 Test animals: SD Rat, male.
24 SD Rats, male; p.o. respectively at a dose of 5 mg/kg and an administration volume of 10 mL/kg after the rats were fasted overnight.
(§2) Formulation of a drug for oral administration: 0.5% CMC-Na (1% Tween 80).
(§3) 0.50 g of sodium carboxymethyl cellulose (CMC-Na, viscosity: 800-1200 Cps) was weighed and dissolved in 99 mL of purified water, and 1 ml of Tween 80 was added. The components were mixed thoroughly under stirring to form a clear solution.
The example compound was weighed into a 100 mL glass vial, 80 mL of the solution was added, and the mixture was subjected to ultrasound treatment for 10 minutes to obtain a homogeneous suspension with a concentration of 0.5 mg/mL.
(§4) After the test animals were euthanised by CO2, blood samples were collected from the heart and brain tissues were harvested at 0.25 h, 0.5 h, 1 h, 2 h, 4 h, 6 h, 8 h, and 24 h post-dose. Blood was placed in EDTA-2K tubes, and centrifuged at 6000 rpm for 6 min at 4°C to separate the plasma. Brain tissues were rinsed with pre-cold PBS, blotted dry, and weighed. Both plasma and brain samples were stored at -80°C. The animals were fed 4 h after administration.
(§5) • 3) 40 uL of plasma sample was precipitated with 160 uL of acetonitrile, mixed, and centrifuged at 3500 × g for 5-20 min. Brain tissues were diluted, homogenised and centrifuged. • 4) 100 uL of the treated supernatant solution was taken for LC/MS/MS analysis to determine the concentration of the test compounds.
(§6) • Liquid phase conditions: Shimadzu LC-20AD pump • Mass spectrometry conditions: AB Sciex API 4000 mass spectrometer • Chromatographic column: Phenomenex Gemiu 5 um C18 50 × 4.6 mm • Mobile phase: solution A: 0.1% formic acid in water, solution B: acetonitrile • Flow rate: 0.8 mL/min • Elution time: 0-4.0 min, with eluents as follows:
(§7) The main pharmacokinetic parameters were calculated using WinNonlin 8.1.

[3] = Pharmacokinetic determination in Balb/c mice; details: mouse, in vivo, po, male Balb/c mice, p.o. 5 mg/kg
Procedure: To investigate the pharmacokinetic behaviours of the example compounds in both plasma and brain of Balb/c mice (test animals) following oral administration at a dose of 5 mg/kg.
as §1
2.2 Test animals: Balb/c Mouse, male.
24 Balb/c mice, male; p.o. respectively at a dose of 5 mg/kg and an administration volume of 10 mL/kg after the mice were fasted overnight.
as §2, §3
The example compound was weighed into a 4-mL glass vial, 2.4 mL of the solution was added, and the mixture was subjected to ultrasound treatment for 10 minutes to obtain a homogeneous suspension with a concentration of 0.5 mg/mL.
as §4
as §5, with “1)” for “3)”, “2)” for “4)”
as §6, §7

[4] = CHO-K1/M4/Gα15 cells, potentiation of acetylcholine (EC20) calcium flux, read-out: M4 FLIPR EC50

| Compound | EC50 [1, 4] [nM] | AUC(0-inf) [2] [ng·h/mL] | Cmax [2] [ng/mL] | Tmax [2] [h] | MRT inf [2] [h] | AUC(0-inf) [3] [ng·h/mL] | Cmax [3] [ng/mL] | Tmax [3] [min] | MRT inf ([3]; read-out: MRT 0-∞) [h] | EC50 [1] [nM] |
| --- | --- | --- | --- | --- | --- | --- | --- | --- | --- | --- |
| Cc1c2c(c3ccnn3c1C)CN(C(=O)CC1CN(c3ccnc(C(F)(F)F)c3)C1)C2 [Example 76, 1-(4,5-Dimethyl-2,3-dihydro-1H-pyrrolo[4,3-c]pyrazolo[1,5-a]pyridin-2-yl)-2-{1-[2-(trifluoromethyl)pyridin-4-yl]azetidin-3-yl}ethan-1-one] | 40.4 | 6150 | 1090 | 2 | 3.9 | – | – | – | – | – |
| Cc1c2c(c3ncnn3c1C)CN(C(=O)OC1CN(c3ccnc(C(F)F)c3)C1)C2 [Example 122] | – | 34800 | 3110 | 2 | 5.8 | 6130 | 1550 | 30 | 2.6 | – |
| Cc1c2c(c3nccn3c1C)CN(C(=O)OC1CN(c3ccnc(C(F)F)c3)C1)C2 [Example 141] | 39.3 | 8540 | 3210 | 0.5 | 1.7 | – | – | – | – | – |
| COc1cc(N2CC(CC(=O)N3Cc4c(C)c(C)n5ncnc5c4C3)C2)c(Cl)cn1 [Example 147] | 40.9 | 3260 | 914 | 1 | 2.4 | – | – | – | – | – |
| COc1cc(N2CC(OC(=O)N3Cc4c(C)c(C)n5ncnc5c4C3)C2)ccn1 [Example 182] | 37 | 7050 | 1710 | 1 | 2.8 | – | – | – | – | – |
| Cc1c2c(c3ncnn3c1C)CN(C(=O)CC1CN(c3ccnc(OC4CC4)c3)C1)C2 [Example 188] | 20.6 | 3170 | 967 | 1 | 2.6 | – | – | – | – | – |
| Cc1c2c(c3ncnn3c1C)CN(C(=O)CC1CN(c3ccc4nc(C(F)F)cn4n3)C1)C2 [Example 189] | 13.3 | 3220 | 1040 | 1 | 2.6 | – | – | – | – | – |
| Cc1c2c(c3ncnn3c1C)CN(C(=O)OC1CN(c3ccc4nc(C(F)F)cn4n3)C1)C2 [Example 191] | 31 | 16100 | 2840 | 2 | 3.9 | – | – | – | – | – |
| COc1cc(N2CC(CC(=O)N3Cc4c(C)c(C)n5ncnc5c4C3)C2)ccn1 [Example 236] | 49.1 | 6710 | 1090 | 1.5 | 4.6 | – | – | – | – | – |
| Cc1c2c(c3ncnn3c1C)CN(C(=O)CC1CN(c3ccc4c(cnn4C)c3)C1)C2 [Example 269] | 87.1 | 3640 | 1330 | 0.83 | 2 | – | – | – | – | – |
| Cc1c2c(c3ncnn3c1C)CN(C(=O)CC1CN(c3cnc4c(c3)COC4)C1)C2 [Example 270] | 23.2 | 12000 | 3500 | 0.83 | 2.5 | – | – | – | – | – |
| CCOc1ccc(N2CC(CC(=O)N3Cc4c(C)c(C)n5ncnc5c4C3)C2)cn1 [Example 304, 1-(5,6-Dimethyl-7,9-dihydro-8H-pyrrolo[3,4-c][1,2,4]triazolo[1,5-a]pyridin-8-yl)-2-(1-(6-ethoxypyridin-3-yl)azetidin-3-yl)ethan-1-one] | 26.9 | 4080 | 2380 | 0.5 | 1.32 | – | – | – | – | – |
| CCn1ncc2cc(N3CC(CC(=O)N4Cc5c(C)c(C)n6ncnc6c5C4)C3)ccc21 [Example 307] | – | 5300 | 2110 | 0.75 | 2.02 | – | – | – | – | 17.1 |
| Cc1c2c(n3ncnc3c1Cl)CN(C(=O)CC1CN(c3ncc(C(F)(F)F)cn3)C1)C2 [Example 317, 1-(4-Chloro-5-methyl-6,8-dihydro-7H-pyrrolo[3,4-e][1,24]triazolo[1,5-a]pyridin-7-yl)-2-(1-(5-(trifluoromethyl)pyrimidin-2-yl)azetidin-3-yl)ethan-1-one] | 16.9 | 26700 | 2140 | 4 | 11.2 | – | – | – | – | – |
| Cc1cc2ncnn2c2c1CN(C(=O)CC1CN(c3ncc(C(F)(F)F)cn3)C1)C2 [Example 331] | – | 10700 | 944 | 2 | 6.8 | – | – | – | – | 101 |
| Cc1c2c(n3ncnc3c1Cl)CN(C(=O)CC1CN(c3ncc(F)cn3)C1)C2 [Example 346, 1-(4-Chloro-5-methyl-6,8-dihydro-7H-pyrrolo[3,4-e][1,2,4]triazolo[1,5-a]pyridin-7-yl)-2-(1-(5-fluoropyrimidin-2-yl)azetidin-3-yl)ethan-1-one] | 32.6 | 11400 | 1460 | 1 | 5.02 | – | – | – | – | – |
